Target: T1, PD-1/PD-L1 (Homo sapiens, UniProt Q9NZQ7)
T1 construct: made in house; host or cells: HEK293T
Experiment: PD-1/PD-L1 Homogenous Time-Resolved Fluorescence (HTRF) binding assay
Details: PD-L1-His 10 nM, PD-1-Ig 20 nM; value given as range class; read-out: Range or IC50
Summary of the method: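 Compounds are tested for blocking the PD-1/PD-L1 interaction in dPBS supplemented with 0.1% BSA and 0.05% (v/v) Tween-20. Tagged proteins are detected with Eu-cryptate anti-Ig and APC anti-His at 1 and 20 nM final.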

T1 sequence (Q9NZQ7 with tags, fused parts or gaps): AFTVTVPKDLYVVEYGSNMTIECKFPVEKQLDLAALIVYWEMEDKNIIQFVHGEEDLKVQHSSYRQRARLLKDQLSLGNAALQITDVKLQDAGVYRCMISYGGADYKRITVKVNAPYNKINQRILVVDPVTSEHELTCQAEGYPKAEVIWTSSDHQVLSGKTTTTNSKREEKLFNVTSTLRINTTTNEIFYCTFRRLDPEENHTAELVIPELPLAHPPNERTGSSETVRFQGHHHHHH

IC50	Compound
0.21 to 10 nM	CC(=O)N[C@H]1CCN(CCCOc2cccc(-c3cccc(COc4cc(OCc5cncc(C#N)c5)c(CNC(CO)CO)cc4Cl)c3C)c2Cl)C1 [Example 2069, (S)—N-(1-(3-((2-chloro-3′-((2-chloro-5-((5-cyanopyridin-3-yl)methoxy)-4-(((1,3-dihydroxypropan-2-yl)amino)methyl)phenoxy)methyl)-2′-methyl-[1,1′-biphenyl]-3-yl)oxy)propyl)pyrrolidin-3-yl)acetamide]
0.21 to 10 nM	CC(=O)NC1CCN(CCCOc2cccc(-c3cccc(COc4cc(OCc5cncc(C#N)c5)c(CN5CCCC[C@H]5C(=O)O)cc4Cl)c3Cl)c2Cl)C1 (stereo partly drawn) [Example 2047, (2S)-1-(4-((3′-(3-(3-acetamidopyrrolidin-1-yl)propoxy)-2,2′-dichloro-[1,1′-biphenyl]-3-yl)methoxy)-5-chloro-2-((5-cyanopyridin-3-yl)methoxy)benzyl)piperidine-2-carboxylic Acid]
0.21 to 10 nM	Cc1c(COc2cc(OCc3cncc(C#N)c3)c(CN(C)C3(C(=O)O)CC3)cc2Cl)cccc1-c1cccc(OCCCN2CC[C@@H](O)C2)c1C [Example 4134, (R)-1-((5-chloro-2-((5-cyanopyridin-3-yl)methoxy)-4-((3′-(3-(3-hydroxypyrrolidin-1-yl)propoxy)-2,2′-dimethyl-[1,1′-biphenyl]-3-yl)methoxy)benzyl)(methyl)amino)cyclopropane-1-carboxylic Acid]
0.21 to 10 nM	Cc1c(COc2cc(OCc3cncc(C#N)c3)c(CNC(CO)CO)cc2Cl)cccc1-c1cccc(OCCCNC(CO)CO)c1Cl [Example 2042, 5-((4-chloro-5-((2′-chloro-3′-(3-((1,3-dihydroxypropan-2-yl)amino)propoxy)-2-methyl-[1,1′-biphenyl]-3-yl)methoxy)-2-(((1,3-dihydroxypropan-2-yl)amino)methyl)phenoxy)methyl)nicotinonitrile]
0.21 to 10 nM	Cc1c(COc2cc(OCc3cncc(C#N)c3)c(CNCCC(=O)O)cc2Cl)cccc1-c1cccc(OCCCN2CC[C@@H](O)C2)c1C [Example 4149, (R)-3-((5-chloro-2-((5-cyanopyridin-3-yl)methoxy)-4-((3′-(3-(3-hydroxypyrrolidin-1-yl)propoxy)-2,2′-dimethyl-[1,1′-biphenyl]-3-yl)methoxy)benzyl)amino)propanoic Acid]
0.21 to 10 nM	Cc1c(COc2cc(OCc3cncc(C#N)c3)c(CN[C@H](C(=O)O)[C@@H](C)O)cc2Cl)cccc1-c1cccc(OCCCN2CC[C@@H](O)C2)c1C [Example 4148, (5-chloro-2-((5-cyanopyridin-3-yl)methoxy)-4-((3′-(3-((R)-3-hydroxypyrrolidin-1-yl)propoxy)-2,2′-dimethyl-[1,1′-biphenyl]-3-yl)methoxy)benzyl)-L-threonine]
0.21 to 10 nM	Cc1c(COc2cc(OCc3cncc(C#N)c3)c(C(=O)NCCO)cc2Cl)cccc1-c1cccc(OCCCN2CC[C@@H](O)C2)c1C [Example 2379, (R)-5-chloro-2-((5-cyanopyridin-3-yl)methoxy)-N-(2-hydroxyethyl)-4-((3′-(3-(3-hydroxypyrrolidin-1-yl)propoxy)-2,2′-dimethyl-[1,1′-biphenyl]-3-yl)methoxy)benzamide]
0.21 to 10 nM	Cc1c(COc2cc(OCc3cncc(C#N)c3)c(CNC(CO)CO)cc2Cl)cccc1-c1cccc(OCCCN2CCCCC2)c1Cl [Example 2051, 5-((4-chloro-5-((2′-chloro-2-methyl-3′-(3-(piperidin-1-yl)propoxy)-[1,1′-biphenyl]-3-yl)methoxy)-2-(((1,3-dihydroxypropan-2-yl)amino)methyl)phenoxy)methyl)nicotinonitrile]
0.21 to 10 nM	CC(=O)NC1CCN(CCCOc2cccc(-c3cccc(COc4cc(OCc5cncc(C#N)c5)c(CNC(CO)CO)cc4Cl)c3C)c2Cl)C1 (stereo not shown) [Example 2052, N-(1-(3-((2-chloro-3′-((2-chloro-5-((5-cyanopyridin-3-yl)methoxy)-4-(((1,3-dihydroxypropan-2-yl)amino)methyl)phenoxy)methyl)-2′-methyl-[1,1′-biphenyl]-3-yl)oxy)propyl)pyrrolidin-3-yl)acetamide]

The remaining lines, values behind:

Compound	IC50
C=CC(=O)NCCCOc1cccc(-c2cccc(COc3cc(OCc4cncc(C#N)c4)c(CN[C@H](CO)C(=O)O)cc3Cl)c2C)c1 [Example 1021, (R)-2-((4-((3′-(3-acrylamidopropoxy)-2-methyl-[1,1′-biphenyl]-3-yl)methoxy)-5-chloro-2-((5-cyanopyridin-3-yl)methoxy)benzyl)amino)-3-hydroxypropanoic Acid]	0.21 to 10 nM
Cc1c(COc2cc(OCc3cncc(C#N)c3)c(CN3CCCC[C@H]3C(=O)O)cc2Cl)cccc1-c1cccc(OCCCN2CCC(O)(C(=O)O)CC2)c1C [Example 1061, (S)-1-(4-((3′-(3-(4-carboxy-4-hydroxypiperidin-1-yl)propoxy)-2,2′-dimethyl-[1,1′-biphenyl]-3-yl)methoxy)-5-chloro-2-((5-cyanopyridin-3-yl)methoxy)benzyl)piperidine-2-carboxylic Acid]	0.21 to 10 nM
Cc1c(OCCCN2CC[C@@H](O)C2)cccc1-c1cccc(COc2cc(OCc3cncc(C#N)c3)c(CN3CCCC[C@H]3C(=O)O)cc2Cl)c1Cl [Example 2302, (S)-1-(5-chloro-4-((2-chloro-3′-(3-((R)-3-hydroxypyrrolidin-1-yl)propoxy)-2′-methyl-[1,1′-biphenyl]-3-yl)methoxy)-2-((5-cyanopyridin-3-yl)methoxy)benzyl)piperidine-2-carboxylic Acid]	0.21 to 10 nM
COc1cc(/C=C/c2cccc(-c3cccc(OCCCN4CC[C@@H](O)C4)c3C)c2C)c(Cl)cc1CN1CCCC[C@H]1C(=O)O [Example 4517, (S)-1-(5-chloro-4-((E)-2-(3′-(3-((R)-3-hydroxypyrrolidin-1-yl)propoxy)-2,2′-dimethyl-[1,1′-biphenyl]-3-yl)vinyl)-2-methoxybenzyl)piperidine-2-carboxylic Acid]	0.21 to 10 nM
Cc1c(COc2cc(OCc3cncc(C(N)=O)c3)c(CNC[C@H](O)CO)cc2Cl)cccc1-c1cccc(OCCCO)c1Cl [Example 2117, (S)-5-((4-chloro-5-((2′-chloro-3′-(3-hydroxypropoxy)-2-methyl-[1,1′-biphenyl]-3-yl)methoxy)-2-(((2,3-dihydroxypropyl)amino)methyl)phenoxy)methyl)nicotinamide]	0.21 to 10 nM
Cc1c(COc2cc(OCc3cncc(C#N)c3)c(CNC(CO)(CO)CO)cc2Cl)cccc1-c1cccc(CN(C)CCN2CCS(=O)(=O)CC2)c1C [Example 4083, 5-((4-chloro-2-(((1,3-dihydroxy-2-(hydroxymethyl)propan-2-yl)amino)methyl)-5-((3′-(((2-(1,1-dioxidothiomorpholino)ethyl)(methyl)amino)methyl)-2,2′-dimethyl-[1,1′-biphenyl]-3-yl)methoxy)phenoxy)methyl)nicotinonitrile]	0.21 to 10 nM
CCN(CC)C(=O)c1cccc(-c2cccc(COc3cc(OCc4cncc(C#N)c4)c(CNC(C)(CO)CO)cc3Cl)c2C)c1C [Example 4045, 3′-((2-chloro-5-((5-cyanopyridin-3-yl)methoxy)-4-(((1,3-dihydroxy-2-methylpropan-2-yl)amino)methyl)phenoxy)methyl)-N,N-diethyl-2,2′-dimethyl-[1,1′-biphenyl]-3-carboxamide]	100 to 2000 nM
Cc1c(COc2cc(OCc3cncc(C#N)c3)c(CNC(C)(CO)C(=O)O)cc2Cl)cccc1-c1cccc(OCc2cncc(C#N)c2)c1 (racemic) [Example 3018, 2-((5-chloro-2-((5-cyanopyridin-3-yl)methoxy)-4-((3′-((5-cyanopyridin-3-yl)methoxy)-2-methyl-[1,1′-biphenyl]-3-yl)methoxy)benzyl)amino)-3-hydroxy-2-methylpropanoic Acid]	0.21 to 10 nM
Cc1c(COc2cc(OCc3cncc(C#N)c3)c(CN(C)C(CO)CO)cc2Cl)cccc1-c1cccc(OCCCN2CCC(F)(F)C2)c1C [Example 4120, 5-((4-chloro-5-((3′-(3-(3,3-difluoropyrrolidin-1-yl)propoxy)-2,2′-dimethyl-[1,1′-biphenyl]-3-yl)methoxy)-2-(((1,3-dihydroxypropan-2-yl)(methyl)amino)methyl)phenoxy)methyl)nicotinonitrile]	0.21 to 10 nM
Cc1c(OCCCN2CC[C@@H](O)C2)cccc1-c1cccc(COc2cc(OCC(F)F)c(CNC(CO)CO)cc2Cl)c1Cl [Example 2318, (R)-2-((5-chloro-4-((2-chloro-3′-(3-(3-hydroxypyrrolidin-1-yl)propoxy)-2′-methyl-[1,1′-biphenyl]-3-yl)methoxy)-2-(2,2-difluoroethoxy)benzyl)amino)propane-1,3-diol]	0.21 to 10 nM
CCC(CO)(CO)NCc1cc(Cl)c(OCc2cccc(-c3cccc(OCCCNC[C@H](O)CO)c3C)c2C)cc1OCc1cncc(C#N)c1 [Example 2279, (S)-5-((4-chloro-5-((3′-(3-((2,3-dihydroxypropyl)amino)propoxy)-2,2′-dimethyl-[1,1′-biphenyl]-3-yl)methoxy)-2-(((1-hydroxy-2-(hydroxymethyl)butan-2-yl)amino)methyl)phenoxy)methyl)nicotinonitrile]	0.21 to 10 nM
Cc1c(COc2cc(OCc3cncc(C#N)c3)c(CN3CCCC[C@H]3C(=O)O)cc2Cl)cccc1-c1cccc(OCCCNCCc2ccccn2)c1C [Example 2225, (2S)-1-(5-chloro-2-((5-cyanopyridin-3-yl)methoxy)-4-((2,2′-dimethyl-3′-(3-(2-(pyridin-2-yl)ethylamino)propoxy)biphenyl-3-yl)methoxy)benzyl)piperidine-2-carboxylic Acid]	0.21 to 10 nM
Cc1cccc(C)c1COc1cc(OCc2cccc(-c3cccc(OCCCN4CC[C@@H](O)C4)c3C)c2C)c(Cl)cc1CNC(C)(CO)CO [Example 4514, (R)-2-((5-chloro-2-((2,6-dimethylbenzyl)oxy)-4-((3′-(3-(3-hydroxypyrrolidin-1-yl)propoxy)-2,2′-dimethyl-[1,1′-biphenyl]-3-yl)methoxy)benzyl)amino)-2-methylpropane-1,3-diol]	100 to 2000 nM

From US10745382B2 (BRISTOL-MYERS SQUIBB COMPANY, priority 2015, dated 2020)
